Measured values reported in EPA's ToxRefDB 2.

How the values were obtained:
[1] = system: rat; settings: Subchronic oral toxicity in rodents, sprague dawley, Water, dose end: 90 day, group: systemic
[2] = system: mouse; settings: Combined chronic toxicity/carcinogenicity, b6c3f1, Oral, Water, dose end: 52 week, group: systemic
[3] = system: rat; settings: Subchronic oral toxicity in rodents, sprague dawley, Gavage/Intubation, dose end: 13 week, group: systemic
[4] = system: rat; settings: Multigenerational reproductive toxicity study, sprague dawley, Oral, Gavage/Intubation, dose end: 2 generation
[5] = system: mouse; settings: Carcinogenicity, cd1, Dermal, Topical, dose end: 18 month, group: systemic
[6] = system: rat; settings: Subchronic dermal toxicity, sprague dawley, Topical, dose end: 90 day, group: systemic
[7] = system: rat; settings: Combined chronic toxicity/carcinogenicity, sprague dawley, Oral, Gavage/Intubation, dose end: 104 week, group: systemic
[8] = system: primate; settings: Chronic toxicity, macaque, Oral, Gavage/Intubation, dose end: 52 week, group: systemic
[9] = system: rat; settings: Subchronic oral toxicity in rodents, wistar, Feed, dose end: 13 week, group: systemic, systemic / clinical chemistry / alanine aminotransferase (alt/sgpt) / alanine aminotransferase (alt/sgpt) + systemic / clinical chemistry / …
[10] = system: rat; settings: Combined chronic toxicity/carcinogenicity, wistar, Oral, Feed, dose end: 120 week, group: systemic
[11] = system: rat; settings: Multigenerational reproductive toxicity study, wistar, Oral, Feed, dose end: 2 generation
[12] = system: mouse; settings: Subchronic oral toxicity in rodents, cd1, Feed, dose end: 13 week, group: systemic
[13] = system: rat; settings: Subchronic oral toxicity in rodents, wistar, Feed, dose end: 14 week, group: systemic
[14] = system: dog; settings: Chronic toxicity; beagle; Oral; Feed; dose end: 52 week; group: systemic; systemic / organ weight / adrenal gland / relative to body weight + systemic / organ weight / testes / relative to body weight + systemic / …
[15] = system: mouse; settings: Carcinogenicity, cd1, Oral, Feed, dose end: 18 month, group: systemic
[16] = system: dog; settings: Subchronic oral toxicity in nonrodent, beagle, Feed, dose end: 14 week, group: systemic
[17] = systemic / in life observation / water consumption / water consumption + systemic / organ weight / kidney / relative to body weight + …
[18] = systemic / organ weight / spleen / absolute + systemic / pathology microscopic / liver / hypertrophy
[19] = systemic / organ weight / liver / absolute + systemic / organ weight / liver / relative to body weight + systemic / pathology microscopic / …
[20] = systemic / pathology microscopic / liver / adenoma + systemic / pathology microscopic / liver / hepatocellular carcinoma + systemic / organ …
[21] = systemic / pathology microscopic / skeletal muscle / atrophy
[22] = systemic / pathology microscopic / skeletal muscle / atrophy + systemic / in life observation / body weight / body weight + systemic / in …
[23] = group: offspring, developmental / developmental landmark / eye opening / eye opening + developmental / developmental landmark / pinna unfolding / pinna …
[24] = group: parental, systemic / in life observation / clinical signs / salivation
[25] = group: reproductive, reproductive / offspring survival early / litter size / litter size
[26] = systemic / in life observation / body weight / body weight + systemic / in life observation / clinical signs / abnormal movements + systemic…
[27] = systemic / pathology microscopic / skeletal muscle / degeneration
[28] = systemic / pathology microscopic / skeletal muscle / degeneration + systemic / in life observation / body weight / body weight + systemic / …
[29] = systemic / in life observation / body weight / body weight + systemic / in life observation / clinical signs / emesis
[30] = systemic / clinical chemistry / alanine aminotransferase (alt/sgpt) / alanine aminotransferase (alt/sgpt) + systemic / clinical chemistry / …
[31] = systemic / pathology microscopic / liver / basophilic focus
[32] = group: offspring, systemic / in life observation / body weight / offspring (pup) weight + systemic / in life observation / body weight / offspring (pup) …
[33] = group: parental, systemic / organ weight / liver / absolute + systemic / organ weight / liver / relative to body weight
[34] = systemic / pathology microscopic / liver / hypertrophy + systemic / pathology microscopic / testes / hypertrophy
[35] = systemic / pathology microscopic / liver / hypertrophy + systemic / pathology microscopic / testes / hypertrophy + systemic / clinical …
[36] = systemic / clinical chemistry / thyroid stimulating hormone (thyrotropin) (tsh) / thyroid stimulating hormone (=thyrotropin) (tsh)
[37] = systemic / organ weight / adrenal gland / nos + systemic / organ weight / kidney / absolute + systemic / organ weight / kidney / relative to…
[38] = systemic / pathology microscopic / adrenal gland / pigmentation
[39] = systemic / clinical chemistry / alderin epoxidase / alderin epoxidase + systemic / clinical chemistry / ethoxycoumarin deethylase / …
[40] = systemic / organ weight / adrenal gland / relative to body weight + systemic / pathology microscopic / adrenal gland / vacuolization …

In the case of `O=C([O-])C(Cl)(Cl)Cl.[Na+]` [Sodium trichloroacetate], the LOAEL [1, 17] is reported as greater than 355 mg/kg/day, the NOAEL [1, 17] is reported as no less than 355 mg/kg/day and the LEL [1, 18] is reported as 4.1 mg/kg/day. The NEL [1, 18] was less than 4.1 mg/kg/day, the LOAEL [2, 19] was greater than 267 mg/kg/day and the NOAEL [2, 19] was no less than 267 mg/kg/day. For the same molecule, the LEL [2, 20] was 133 mg/kg/day and the NEL [2, 20] was less than 133 mg/kg/day.

Molecule `[Na+].[O-]n1ccccc1=S` [Sodium pyrithione] has an LEL [3, 21] of 2 mg/kg/day, an LOAEL [3, 21] of 2 mg/kg/day and an NEL [3, 22] of 0.5 mg/kg/day. For the same molecule, the NOAEL [3, 22] was 0.5 mg/kg/day, the LEL [4, 23] was 3.5 mg/kg/day and the LOAEL [4, 23] was 3.5 mg/kg/day. It also gave an NEL [4, 23] of 1.5 mg/kg/day, an NOAEL [4, 23] of 1.5 mg/kg/day and an LEL [4, 24] of 0.5 mg/kg/day. It also gave an NEL [4, 24] of less than 0.5 mg/kg/day, an LOAEL ([4]; group: parental, systemic / pathology microscopic / skeletal muscle / atrophy) of 1.5 mg/kg/day and an NOAEL ([4]; group: parental, systemic / pathology microscopic / skeletal muscle / atrophy + systemic / in life observation / body weight / body weight + systemic / in …) of 0.5 mg/kg/day. The LOAEL [4, 25] was 3.5 mg/kg/day, the NEL [4, 25] was 1.5 mg/kg/day and the NOAEL [4, 25] was 1.5 mg/kg/day. The LEL ([4]; group: reproductive, reproductive / offspring survival early / litter size / litter size + reproductive / reproductive performance / fertility / fertility + …) was 3.5 mg/kg/day, the LEL [5, 26] was 2 mg/kg/day and the NEL [5, 26] was less than 2 mg/kg/day. For the same molecule, the LOAEL ([5]; systemic / in life observation / mortality / mortality + systemic / pathology microscopic / liver / hypertrophy) was 20 mg/kg/day, the NOAEL ([5]; systemic / in life observation / mortality / mortality + systemic / pathology microscopic / lymph node / lymphoma malignant + systemic / in …) was 2 mg/kg/day and the LOAEL [6, 21] was 15 mg/kg/day. For the same molecule, the NEL [6, 22] was 5 mg/kg/day, the NOAEL [6, 22] was 5 mg/kg/day and the LEL ([6]; systemic / pathology microscopic / skeletal muscle / atrophy + systemic / pathology gross / skeletal muscle / reduced size) was 15 mg/kg/day. It also gave an LEL [7, 27] of 1.5 mg/kg/day, an LOAEL [7, 27] of 1.5 mg/kg/day and an NEL [7, 28] of 0.5 mg/kg/day. The NOAEL [7, 28] was 0.5 mg/kg/day, the LEL [8, 29] was 5 mg/kg/day and the LOAEL [8, 29] was 25 mg/kg/day. The NEL [8, 29] was less than 5 mg/kg/day and the NOAEL ([8]; systemic / in life observation / body weight / body weight + systemic / in life observation / clinical signs / emesis + systemic / in life …) was 5 mg/kg/day.

With `O=C(NC(=O)c1c(F)cccc1F)Nc1cc(Cl)c(F)c(Cl)c1F` [Teflubenzuron] the LEL [9] was 81.6 mg/kg/day, the LOAEL [9] was 81.6 mg/kg/day and the NEL [9] was 8 mg/kg/day. For the same molecule, the NOAEL [9] was 8 mg/kg/day, the LOAEL [10, 30] was 26 mg/kg/day and the NOAEL [10, 30] was 5.1 mg/kg/day. For the same molecule, the LEL [10, 31] was 1.3 mg/kg/day and the NEL [10, 31] was less than 1.3 mg/kg/day.

Molecule `CCC(C)(C)C(=O)OC1=C(c2ccc(Cl)cc2Cl)C(=O)OC12CCCCC2` [Spirodiclofen] has an LEL [11, 32] of 30.2 mg/kg/day, an LOAEL [11, 32] of 30.2 mg/kg/day and an NEL [11, 32] of 6.4 mg/kg/day. For the same molecule, the NOAEL [11, 32] was 6.4 mg/kg/day, the LOAEL ([11]; group: parental, systemic / in life observation / body weight / body weight + systemic / organ weight / liver / absolute) was 26.2 mg/kg/day and the NOAEL ([11]; group: parental, systemic / in life observation / body weight / body weight + systemic / organ weight / liver / absolute + systemic / in life observation / …) was 5.2 mg/kg/day. For the same molecule, the LEL [11, 33] was 5.2 mg/kg/day, the NEL [11, 33] was less than 5.2 mg/kg/day and the LEL [12, 34] was 164 mg/kg/day. It also gave an LOAEL [12, 34] of 164 mg/kg/day, an NEL [12, 35] of 15 mg/kg/day and an NOAEL [12, 35] of 15 mg/kg/day. The LEL [13, 36] was 8.1 mg/kg/day, the NEL [13, 36] was less than 8.1 mg/kg/day and the LOAEL ([13]; systemic / pathology microscopic / adrenal gland / vacuolization cytoplasmic) was 47.1 mg/kg/day. It also gave an NOAEL ([13]; systemic / pathology microscopic / adrenal gland / vacuolization cytoplasmic + systemic / clinical chemistry / alanine aminotransferase (alt…) of 8.1 mg/kg/day, an LEL [14] of 4.33 mg/kg/day and an LOAEL [14] of 4.33 mg/kg/day. It also gave an NEL [14] of 1.38 mg/kg/day, an NOAEL [14] of 1.38 mg/kg/day and an LOAEL [15, 37] of 610 mg/kg/day. For the same molecule, the NOAEL [15, 37] was 4.1 mg/kg/day, the LEL [15, 38] was 5.1 mg/kg/day and the NEL [15, 38] was less than 5.1 mg/kg/day. The LEL [16, 39] was 7.7 mg/kg/day, the NEL [16, 39] was less than 7.7 mg/kg/day and the LOAEL [16, 40] was 8.4 mg/kg/day. The NOAEL [16, 40] was less than 8.4 mg/kg/day.
